Entries after “also recorded” stand apart in the source; their conditions may differ. Where two headings read alike, the source gives them in different places. One block for each molecule: values may come before it.
Key:
[1] = test system: PC-3 prostate cancer cells; experiment: MTT cell growth inhibition assay, PC-3 cells; format: cell-based, human
Experimental: PC-3 (androgen receptor negative, AR−ve) cells were obtained from American Type Culture Collection (ATCC, Rockville, Md., USA). Cells were maintained in RPMI 1640 medium (Gibco, Invitrogen, Carlsbad, Calif., USA) supplemented with 10% fetal bovine serum (Atlanta Biologicals, Lawrenceville, Ga., USA) and 1% penicillin/streptomycin. Cells were grown as a monolayer in T75 tissue culture flasks in a humidified incubator (5% CO2, 95% air) at 37° C.
(§1) PC-3 cells were seeded in 24 well plates (Corning Costar) at a density of 2×10^4 cells per well per 1 mL of medium. Cells were allowed to adhere to the plate for 24 hours and then treated with different concentrations of ATRA, HDIs or mutual prodrugs dissolved in 10% DMSO, 90% ethanol. Cells were treated for five days with renewal of prodrug and media on day 3. On the fifth day, medium was renewed and 100 μL of MTT (3-(4,5-dimethylthiazol-2-yl)-2,5-diphenyl-2H-tetrazolium bromide from Sigma) solution (0.5 mg MTT/mL of media) was added to the medium such that the ratio of MTT:medium was 1:10. The cells were incubated with MTT for 2 hours. The medium was then aspirated and 500 μL of DMSO was added to solubilize the violet MTT-formazan product. The absorbance at 560 nm was measured by spectrophotometry (Victor 1420 multilabel counted, Wallac). For each concentration of agent or mutual prodrugs there were triplicate wells in each independent experiment. GI50 values were calculated by nonlinear regression analysis using GraphPad Prism software.
(§2) The MTT (3-[4,5-dimethylthiazol-2-yl]-2,5-diphenyltetrazolium bromide) assay was used to measure the cell viability. PC-3 cells or MDA-MB-231 cells (1.0×10^3 cells/ml) were seeded into 96 well plates. Cells were treated with the compounds on day 2 at different concentrations. On the 5th day, the medium was removed and […] of a 0.5 mg/ml MTT solution was added to each well. The plates were incubated at 37° C. for 2 hours and 200 μL of DMSO was added. The yellow tetrazolium salt (MTT) is reduced to a purple formazan product by the mitochondrial dehydrogenase from living cells. The product is then detected by spectrophotometry at 560 nm.
To assess the effect of mutual prodrugs on cell growth, PC-3 and MDA-MB-231 cells were treated with mutual prodrugs for […], respectively. […] In this cell line, the order of potency was VNLG/66>VNLG/114>VNLG/122>VNLG/124>VNLG/60. The efficacies of mutual prodrugs were compared to the efficacies of ATRA or HDIs alone in PC-3 prostate cancer cells. […] The reason(s) for these differential potencies of the different mutual prodrugs in PC-3 cells are unknown at this time, but may be idiosyncratic, possibly due to extents and efficiencies of cell membrane penetration and/or intracellular cleavage of mutual prodrugs.

[2] = test system: MCF-7TAMR; experiment: MTT cell growth inhibition, MCF-7TAMR cells; format: cell-based
Experimental: (§3) Other cell lines used in this study include, MDA-MB-231 (estrogen receptor negative, ER−ve), MCF-7 (ER+ve) were also purchased from ATCC and were cultured as previously described.^44, 45 LTLC and LTLT-Ca were kindly provided by Dr. Angela Brodie, University of Maryland, Baltimore, and details of their phenotypes and culturing conditions are as previously reported.^46, 47 MCF-7TAM and MCF-7HoxB-7 were provided by Dr. Sara Sukumar of Johns Hopkins University, Baltimore, and details of their phenotypes and culturing conditions are as previously reported.^48 Except for MCF-7 breast cancer cell all other breast cancer cells used in this study are insensitive to endocrine therapeutic agents and to most anti-cancer agents.
as §1
(§4) Given the potency of most of the mutual prodrugs of the present invention, in MDA-MB-231 and PC-3 cell lines, their effects on the growth of some known drug-resistant breast cancer cell lines, including MCF-7TAMR, MCF-7Hox-B7, LTLC and LTLT-Ca was tested compared to parental MCF-7 cells.

[3] = test system: LTLT-Ca; experiment: MTT cell growth inhibition, LTLT-Ca cells; format: cell-based
Experimental: as §3
(§5) PC-3 cells were seeded in 24 well plates (Corning Costar) at a density of 2×10^4 cells per well per 1 mL of medium. Cells were allowed to adhere to the plate for 24 hours and then treated with different concentrations of ATRA, HDIs or mutual prodrugs dissolved in 10% DMSO, 90% ethanol. Cells were treated for five days with renewal of prodrug and media on day 3. […] The absorbance at 560 nm was measured by spectrophotometry (Victor 1420 multilabel counted, Wallac). […] GI50 values were calculated by nonlinear regression analysis using GraphPad Prism software. […]

[4] = test system: MCF-7HOX-B7; experiment: MTT cell growth inhibition, MCF-7HOX-B7 cells; format: cell-based
Experimental: as §3, §1, §4

[5] = test system: LTLC; experiment: MTT cell growth inhibition, LTLC cells; format: cell-based
Experimental: as §3, §5

[6] = pH 7.2
Experimental: Plasma was obtained by centrifugation of blood samples (obtained from mice) containing 0.25% heparin. 0.8 ml of plasma was mixed with 0.2 ml of phosphate buffer (pH 7.2). Incubations were performed at 37° C.+/−0.5° C. using shaking water bath. The reaction was initiated by adding 25 μl of stock solution of mutual prodrugs (1 mg/ml) to preheated plasma and aliquots were taken at different time interval and extracted using solid phase extraction with C18 Bond Elut columns. HPLC analysis of the extracted samples were performed using a multi-linear gradient solvent system, (i) 20 mM aq. CH3COONH4 buffer/CH3OH(50:50), (100% to 0%) and (ii) CH3OH(100%), (0% to 100%) at a flow rate of 0.8 ml/min.
Plasma was obtained by centrifugation of blood samples containing 0.25% heparin. 0.8 ml of plasma was mixed with 0.2 ml of phosphate buffer (pH 7.2). Incubations were performed at 37° C.±0.5° C. using shaking water bath. […]
HPLC methods were developed to briefly study the cleavage of compounds VNLG/60, VNLG/66, VNLG/114,VNLG/122 and VNLG/124, in fresh mouse plasma. […] Furthermore, the stability of mutual prodrugs was studied in 0.02 M phosphate buffer (pH=7.2) and also in 80% human serum (obtained from Sigma) containing 20% 0.02 M phosphate buffer as previously described.^41 The mutual prodrugs were each incubated at 37° C. for 24 h, extracted and analyzed by HPLC.

[7] = test system: MDA-MB-231 breast cancer cells; experiment: MTT colorimetric cell viability assay, MDA-MB-231 cells; format: cell-based
Experimental: as §3
as §2, with “viability.” for “viability. PC-3 cells or”, “compound” for “compounds”
as §2

[8] = test system: MCF-7; experiment: MTT cell growth inhibition, MCF-7 cells; format: cell-based
Experimental: as §3, §1, §4

[9] = Homo sapiens, PC-3, dose-response curves, at least three independent experiments, SEM < 10%, read-out: GI50 Values, PC-3 prostate cancer cells
[10] = MDA-MB-231, dose-response curves, at least three independent experiments, SEM < 10%, read-out: GI50 Values, MDA-MB-231 breast cancer cells
[11] = MDA-MB-231, read-out: GI50, MDA-MB-231 cells
[12] = PC-3, dose-response curves, at least three independent experiments, SEM < 10%, read-out: GI50 Values, PC-3 prostate cancer cells
[13] = Homo sapiens, MDA-MB-231, dose-response curves, at least three independent experiments, SEM < 10%, read-out: GI50 Values, MDA-MB-231 breast cancer cells
[14] = Homo sapiens, MDA-MB-231, read-out: GI50, MDA-MB-231 cells

Molecule: {N-[N-{2-[4-{[3-Pyridylmethoxy)carbonyamino]methyl}phenyl)carbonylamino]phenyl}carbamoyl carbamoyloxy}methyl(2E,4E,6E,8E)-3,7-dimethyl-9-(2,6,6-trimethylcyclohex-1-enyl)nona-2,4,6,8-tetraenoate [VNLG/66]
GI50 ([2]; MCF-7TAMR): 0.02 µM
GI50 [3]: 0.65 µM
GI50 ([4]; MCF-7HOX-B7): 0.006 µM
GI50 [5]: 0.02 µM
hydrolysis of mutual prodrug in plasma [6]: no mutual Prodrug after one hour
GI50 [7, 10]: 0.94 µM
GI50 [7, 11]: 0.94 µM
GI50 ([8]; MCF-7): 0.15 µM
GI50 fold lower than 2 (MS-275) ([1]; PC-3): 4.75 fold
GI50 [1, 12]: 0.04 µM
GI50 ([1]; PC-3, read-out: GI50, PC-3 cells): 0.04 µM

Molecule: CC1=C(/C=C/C(C)=C/C=C/C(C)=C/C(=O)O)C(C)(C)CCC1 [ATRA, all-trans retinoic acid, reference compound]
GI50 [7, 13]: 10.8 µM
GI50 [1, 9]: 7.6 µM

Molecule: Nc1ccccc1NC(=O)c1ccc(CNC(=O)OCc2cccnc2)cc1 [MS-275, N-(2-aminophenyl)4-[N-(pyridine-3-yl-methoxy-carbonyl)aminomethyl]benzamide, reference compound]
GI50 [7, 13]: 0.009 µM
GI50 ([1]; Homo sapiens, PC-3, read-out: GI50, PC-3 cells): 0.19 µM
GI50 [1, 9]: 0.19 µM

Molecule: CCCC(=O)[O-].[Na+] [Sodium butyrate (BA), Sodium butyrate, reference compound]
GI50 [7, 13]: > 1000 µM
GI50 ([1]; Homo sapiens, PC-3, read-out: GI50 Values, PC-3 prostate cancer cells): 72.4 µM

Molecule: CC(=O)Nc1ccc(C(=O)Nc2ccccc2N)cc1 [CI-994, N-(2′-aminophenyl)-4-acetylaminobenzamide, reference compound]
GI50 [7, 13]: 0.17 µM
GI50 [1, 9]: 0.29 µM

The next lines start with results.

GI50 [1, 9]: 1.02 µM
GI50 fold lower than that of butyric acid (BA) ([1]; PC-3): 74 fold
Molecule: CC1=C(/C=C/C(C)=C/C=C/C(C)=C/C(=O)Oc2ccc(CO)cc2)C(C)(C)CCC1 [compound 16, 4-(Hydroxymethyl)phenyl(2E,4E,6E,8E)-3,7-dimethyl-9-(2,6,6-trimethylcyclohex-1-enyl)nona-2,4,6,8-tetraenoate]

GI50 ([2]; MCF-7TAMR): 0.08 µM
GI50 ([4]; MCF-7HOX-B7): 8.13 µM
GI50 fold difference to VNLG/60 ([7]; MDA-MB-231): 31.5 fold
GI50 fold lower than ATRA ([7]; MDA-MB-231): 543 fold
GI50 fold lower than CI-994 ([7]; MDA-MB-231): 8.5 fold
GI50 [7, 10]: 0.02 µM
GI50 [7, 11]: 0.02 µM
GI50 ([8]; MCF-7): 0.52 µM
GI50 [1, 12]: 0.87 µM
Molecule: CC(=O)Nc1ccc(C(=O)Nc2ccccc2NC(=O)OCc2ccc(OC(=O)/C=C(C)/C=C/C=C(C)/C=C/C3=C(C)CCCC3(C)C)cc2)cc1 [VNLG/122, 4-{[N-2-{[4-(Acetylamino)phenyl]carbonylamino}phenyl0carbamoyloxy]methyl}phenyl(2E,4E,6E,8E) -3,7-dimethyl-9-(2,6,6-trimethylcyclohex-1-enyl)nona-2,4,6,8-tetraenoate]

GI50 [2]: 0.21 µM
GI50 [4]: 0.72 µM
GI50 [7, 13]: 0.17 µM
GI50 ([8]; Homo sapiens, MCF7): 0.06 µM
GI50 [1, 9]: 0.18 µM
melting point: 128 to 130 °C
Molecule: CC1=C(/C=C/C(C)=C/C=C/C(C)=C/C(=O)Oc2ccc(COC(=O)Nc3ccccc3NC(=O)c3ccc(NCC(=O)OCc4cccnc4)cc3)cc2)C(C)(C)CCC1 [VNLG/114, 4-{[N-(2-{[4-({[(3-Pyridylmethyl)oxycarbonyl]methyl}amino)phenyl]carbonylamino}phenyl)carbamoyloxy]methyl}phenyl(2E,4E,6E,8E)-3,7-dimethyl-9-(2,6,6-trimethylcyclohex-1-enyl)nona-2,4,6,8-tetraenoate]
growth inhibitory effect versus parent drugs alone or in combination ([7]; MDA-MB-231): synergistic growth inhibitory effect; also recorded: significant increase

GI50 ([7]; MDA-MB-231, head-to-head with VNLG/124, FIG. 7, read-out: GI50 for inhibition of growth of MDA-MB-231 cells, head-to-head (FIG. 7)): 1.18 µM
Molecule: CCCC(=O)OCOC(=O)C=C(C)C=CC=C(C)C=CC1=C(C)CCCC1(C)C [compound 3, retinoyloxymethyl butyrate, reference compound]

GI50 [2]: 0.17 µM
GI50 [4]: 1.2 µM
GI50 [7, 14]: 0.63 µM
GI50 ([7]; Homo sapiens, MDA-MB-231, MTT assay, FIG. 1C, read-out: GI50, MDA-MB-231 (FIG. 1C)): 4.3 µM
GI50 [7, 13]: 0.63 µM
GI50 ([8]; Homo sapiens, MCF7): 0.25 µM
GI50 [1, 9]: 4.27 µM
Molecule: CC(=O)Nc1ccc(C(=O)Nc2ccccc2NC(=O)CNC(=O)OCOC(=O)/C=C(C)/C=C/C=C(C)/C=C/C2=C(C)CCCC2(C)C)cc1 [VNLG/60, (N-{[N-(2-{[4-(Acetylamino)phenyl]carbonylamino}phenyl)carbamoyl]methyl}carbamoyloxy)methyl(2E,4E,6E,8E)-3,7-dimethyl-9-(2,6,6-trimethylcyclohex-1-enyl)nona-2,4,6,8-tetraenoate]
growth inhibitory effect versus parent drugs alone or in combination ([7]; MDA-MB-231): synergistic growth inhibitory effect

GI50 [7, 14]: 0.01 µM
GI50 ([7]; Homo sapiens, MDA-MB-231, head-to-head with 3, FIG. 7, read-out: GI50 for inhibition of growth of MDA-MB-231 cells, head-to-head (FIG. 7)): 0.048 µM
GI50 [7, 13]: 0.01 µM
GI50 fold lower than ATRA ([7]; MDA-MB-231): 1085 fold
GI50 fold lower than BA ([7]; MDA-MB-231): over 100,000 fold
GI50 fold lower than that of 3 ([7]; MDA-MB-231, FIG. 7): 25 fold
GI50 ([1]; Homo sapiens, PC-3, FIG. 9, combination = increasing ATRA with BA 10.0 μM, read-out: GI50, PC-3 dose-response curves (FIG. 9)): 1.7 µM
GI50 [1, 9]: 1.02 µM
GI50 fold lower than the combination of ATRA and BA ([1]; PC-3, FIG. 9): 15 fold
Molecule: CCCC(=O)OCc1ccc(OC(=O)/C=C(C)/C=C/C=C(C)/C=C/C2=C(C)CCCC2(C)C)cc1 [VNLG/124, 4-(Butanoyloxymethyl)phenyl(2E,4E,6E,8E)-3,7-dimethyl-9-(2,6,6-trimethylcyclohex-1-enyl)nona-2,4,6,8-tetraenoate]
growth inhibitory effect versus parent drugs alone or in combination ([7]; MDA-MB-231): significant increase
inhibition at 20 µM ([1]; Homo sapiens, PC-3, 20 μM, FIG. 8): ~80%
growth inhibitory effect versus parent drugs alone or in combination ([1]; PC3): significant increase

From patent US20100184812A1, “MUTUAL PRODRUGS AND METHODS TO TREAT CANCER” (UNIVERSITY OF MARYLAND, BALTIMORE, priority 2007, published 2010)
